In US20040039050A1, “Cryptotanshinone for preventing and alleviating alzheimer's disease” (priority 2001, published 2004):

How the values were obtained:
[1] = rats
healthy male mice [2] = assay: Acute toxicity test in mouse; assay type: in vivo; settings: intragastric
Text: The drug was administrated intragastrically.

hyperammonemia rat model [3] = assay: Blood ammonia reducing experiment (injection); assay type: in vivo, SD rats; settings: for Reduction rate: blood ammonia, intraperitoneal for 4 days
Method: The animals used in this experiment were 50 healthy male SD rats weighing 250-300 g. They were randomly divided into 5 groups, that is, normal control group, experimental control group (acetamide group), sodium glutamate/acetamide group, Cryptotanshinone/acetamide group and tanshinone IIA/acetamide group. The rats in all those groups except the normal control group were injected intraperitoneally with saline, sodium glutamate injection (with a dose of 410 mg/kg), saline solution of Cryptotanshinone (containing small amount of surface active agent, with a dose of 10 mg/kg), saline solution of tanshinone IIA (containing small amount of surface active agent, with a dose of 10 mg/kg) respectively. 45 min after the injection, the rats in all those groups except normal control group were injected intraperitoneally with 5.5 mmol/kg acetamide. Above injections continued for 4 days. In the 4th day, 30 min after the acetamide injection, blood samples of the rats in each group were collected by eyeball removing method immediately, and processed with the anticoagulant EDTA-Na, then the blood ammonia concentration was determined using conventional method.
(§1) The dose of sodium glutamate in this example and following examples was settled with the reference of its actual clinical dose. The method for determining the blood ammonia concentration in this example and following examples was enzyme-UV method, the instrument used was HITACHI-7170 automatic analyzer, and the kit used was AMMONIA kit. Calculation formula of decrease ratio in Table 1 and following tables was: Decrease rate=[1−(concentration of treating group−concentration of normal control group)/(concentration of experimental control group−concentration of normal control group)]×100%.
Using the same experiment method, 90 min after the acetamide injection at the 4th day, blood samples of the rats in each group were collected by eyeball removing method immediately. The blood ammonia concentration was determined.

[4] = test system: high-level brain ammonia animal model; assay: Brain tissue ammonia concentration reducing experiment (injection); assay type: in vivo, SD rats; settings: for Reduction rate: brain tissue ammonia, intraperitoneal for 4 days, 60 min after acetamide on 4th day; for Brain tissue ammonia concentration: intraperitoneal for 4 days (sodium glutamate 410 mg/kg, Cryptotanshinone 30 mg/kg), brain 60 min after acetamide on 4th day
Text: as §1
(§2) Experimental animals were 50 healthy male SD rats, weight between 250-300 g. They were randomly divided into 4 groups, i.e. normal control group, experimental control group ([…]), sodium glutamate/acetamide group, and Cryptotanshinone/acetamide group. The rats in all those groups except the normal control group were injected intraperitoneally with saline, sodium glutamate solution (with a dose of 410 mg/kg), and saline solution of Cryptotanshinone (containing small amount of surface active agent, with a dose of 30 mg/kg) respectively. 45 min after the injection, the rats in all those groups except the normal control group were injected intraperitoneally with 5.5 mmol/kg acetamide. Above injections continued for 4 days. In the 4th day, 60 min after the acetamide injection, the rats of each group were put to death, and brain tissue samples were taken out immediately and homogenized under low temperature condition, then the ammonia concentration in brain tissue was determined by using glutamate dehydrogenase assay.

AD rat model = assay: Impaired neuro-behavioral symptoms relieving experiment, Morris water labyrinth; assay type: in vivo, SD rats; parameters: key: —: −Normal; +Dysmnesia (Number of + indicates the extent of memory impairment, and +++++ represents the most severe case.); +++++ represents the most severe case; settings: oral 200 mg/kg/day, D-galactose/acetamide rats
Text: Experimental animals were 40 healthy male SD rats, weight between 250-300 g. They were randomly divided into 4 groups, i.e. normal control group, model control group A (D-galactose/quinolinic acid group), model control group B (D-galactose/acetamide group), and Cryptotanshinone group (D-galactose/acetamide/Cryptotanshinone group). Morris water labyrinth method was used to evaluate the neuro-behavioral symptoms of rats model caused by subacute senium and chemical damage by D-galactose.
Normal control group: routine breeding.
Model control group A (D-galactose/quinolinic acid group): D-galactose was injected subcutaneously (50 mg/kg/day, for 6 weeks) to cause subacute senium in rats. Quinolinic acid (1 μL, containing quinolinic acid 75 nmol) was injected into the rats' bilateral hippocampal gyrus to evidently decrease rats' labyrinth learning and memorizing ability, which served as animal model similar to AD.
Model control group B (D-galactose/acetamide group): D-galactose was injected subcutaneously (50 mg/kg/day, for 6 weeks) to cause subacute senium in rats; acetamide (10 mmol/kg/day) was injected intraperitoneally for 7 continuous days. […] The treated rats were served as animal model similar to AD.
Cryptotanshinone group (D-galactose/acetamide/Cryptotanshinone group):
Simultaneously with subcutaneous injection of D-galactose (50 mg/kg/day, for 6 weeks), Cryptotanshinone was orally administered (the dose was 200 mg/kg/day). 10 mmol/kg acetamide was intraperitoneally injected for 7 continuous days (Cryptotanshinone was orally given at the same time).

[5] = test system: high-level brain ammonia animal model; assay: Brain tissue ammonia concentration reducing experiment (oral); assay type: in vivo, SD rats; settings: for Reduction rate: brain tissue ammonia, oral for 4 days, 60 min after acetamide on 4th day; for Brain tissue ammonia concentration: oral for 4 days (sodium glutamate 200 mg/kg, Cryptotanshinone 150 mg/kg), brain 60 min after acetamide on 4th day
Text: as §1
as §2, with “The rats in all those groups except the normal control group were injected intraperitoneally with saline, sodium glutamate solution (with a dose of 410 mg/kg), and saline solution of Cryptotanshinone (containing small amount of surface active agent, with a dose of 30 mg/kg) respectively.” left out
The same experiment condition in example 6 was adopted except Sodium Glutamate oral taking (the dose was 200 mg/kg) instead of Sodium Glutamate injection and Cryptotanshinone oral taking (dose 150 mg/kg) instead of Cryptotanshinone injection. In the 4th day, 60 min after the acetamide injection, the rats of each group were put to death and brain tissue samples were taken out immediately. Then, the ammonia concentration in brain tissue was determined.

[6] = Brain tissue entrance experiment; assay type: in vivo, rats; settings: intragastric 300 mg/kg/day for 5 days; brain 1 hour after administration on 5th day; chloroform extract
Method: Experimental animals were healthy male rats. The drug was continually administrated intragastrically at a dose of 300 mg/kg/day, continued for 5 days. 1 hour after administration on the 5th day, rats were put to death and brains were taken out. The brain tissues were homogenized and then extracted with chloroform.

healthy male mice [7] = assay: 30 days toxicity test in mouse; assay type: in vivo; settings: intragastric 200 mg/kg day for 30 days
Method: The drug was continually administrated intragastrically for 30 days with dose of 200 mg/kg day.

hyperammonemia rat model [8] = assay: Blood ammonia reducing experiment (oral); assay type: in vivo, SD rats

With `C[C@H]1COC2=C1C(=O)C(=O)c1c2ccc2c1CCCC2(C)C` [Cryptotanshinone] the “Content of Cryptotanshinone in tissues” value [1] was “highest in blood and brain tissue”, the LD50 (healthy male mice [2]) was over 30 g 1 kg and the “Toxic symptom or death” value (healthy male mice [2]; dose added to 1.5 g/kg) was “no toxic symptom or death”. For the same compound, the Reduction rate (hyperammonemia rat model [3]; 30 min after acetamide on 4th day) was 60%, the Reduction rate [4] was 60% and the “Brain tissue ammonia concentration” value [4] was 280 nmol/g. For the same compound, the “AD Symptom-Dysmnesia Synthetic Index” value (AD rat model; Day 1 after chemical damage) was “—”, the “AD Symptom-Dysmnesia Synthetic Index” value (AD rat model; Day 2 after chemical damage) was “—” and the “AD Symptom-Dysmnesia Synthetic Index” value (AD rat model; Day 3 after chemical damage) was “—”. The “AD Symptom-Dysmnesia Synthetic Index” value (AD rat model; Day 4 after chemical damage) was “—”, the “AD Symptom-Dysmnesia Synthetic Index” value (AD rat model; Day 5 after chemical damage) was “+” and the “AD Symptom-Dysmnesia Synthetic Index” value (AD rat model; Day 6 after chemical damage) was “+”. The “AD Symptom-Dysmnesia Synthetic Index” value (AD rat model; Day 7 after chemical damage) was “+”, the Reduction rate [5] was 45% and the “Brain tissue ammonia concentration” value [5] was 310 nmol/g. The “Cryptotanshinone detected in brain tissue with HPLC” value [6] was “Significant amount”, the “Change in growth and development, hematopoiesis function, and biochemical index” value (healthy male mice [7]) was “no apparent abnormal change or toxic reaction” and the “Death of the tested mice” value (healthy male mice [7]) was “no death”. For the same compound, the “Pathology of major organs (anatomical and tissue microscopy inspection)” value (healthy male mice [7]) was “No pathology change”.
Work on `Cc1cccc2c3c(ccc12)C1=C(C(=O)C3=O)[C@@H](C)CO1` [Dihydrotanshinone I] yielded a Reduction rate (hyperammonemia rat model [3]; 90 min after acetamide on 4th day) of 100%, a Blood ammonia concentration (hyperammonemia rat model [3]; intraperitoneal for 4 days (sodium glutamate 410 mg/kg, others 10 mg/kg), blood 90 min after acetamide on 4th day) of 110 µmol/L and a Reduction rate (hyperammonemia rat model [8]; blood ammonia, oral for 4 days, 90 min after acetamide on 4th day) of 97%. It also gave a Blood ammonia concentration (hyperammonemia rat model [8]; oral for 4 days (sodium glutamate 200 mg/kg, others 100 mg/kg), blood 90 min after acetamide on 4th day) of 120 µmol/L.
For `N[C@@H](CCC(=O)[O-])C(=O)[O-].[Na+].[Na+]` [Sodium Glutamate, reference compound], the Reduction rate [4] was 28%, the “Brain tissue ammonia concentration” value [4] was 350 nmol/g and the Reduction rate [5] was 19%. For the same compound, the “Brain tissue ammonia concentration” value [5] was 370 nmol/g.
